Reference: the NIST ThermoML archive (doi:10.1021/je050001c)
Numbers after ± are expanded uncertainties.

Conditions: 101.33 kPa, Liquid; for viscosity: Falling or rolling sphere viscometry

SMILES	mass density (293.15 K)	viscosity (293.15 K)	mass density (298.15 K)	viscosity (298.15 K)	mass density (303.15 K)	viscosity (303.15 K)	mass density (308.15 K)	viscosity (308.15 K)	mass density (313.15 K)	viscosity (313.15 K)	mass density (318.15 K)	viscosity (318.15 K)	mass density (323.15 K)	viscosity (323.15 K)	mass density (328.15 K)	viscosity (328.15 K)	mass density (333.15 K)	viscosity (333.15 K)	mass density (338.15 K)	viscosity (338.15 K)	also measured
CCCCOC(C)=O [butyl ethanoate]	881.04 ± 5.9 kg/m3	0.732 ± 0.01 mPa·s	876.45 ± 5.9 kg/m3	0.677 ± 0.01 mPa·s	871.3 ± 5.9 kg/m3	0.628 ± 0.009 mPa·s	866.25 ± 5.9 kg/m3	0.585 ± 0.009 mPa·s	861.84 ± 6 kg/m3	0.546 ± 0.009 mPa·s	857.32 ± 6 kg/m3	0.512 ± 0.009 mPa·s	854.61 ± 6 kg/m3	0.481 ± 0.009 mPa·s	850.78 ± 6 kg/m3	0.453 ± 0.009 mPa·s	847.92 ± 6 kg/m3	0.428 ± 0.009 mPa·s	844.39 ± 6 kg/m3	0.405 ± 0.009 mPa·s	mass density (343.15 K): 841.77 ± 6.1 kg/m3; viscosity (343.15 K): 0.384 ± 0.009 mPa·s
CC/C=C\CCOC(=O)C(C)C [cis-3-hexenyl isobutyrate]	885.08 ± 3.6 kg/m3	1.024 ± 0.023 mPa·s	878.12 ± 3.7 kg/m3	0.941 ± 0.021 mPa·s	873.61 ± 3.8 kg/m3	0.868 ± 0.02 mPa·s	870.34 ± 3.8 kg/m3	0.804 ± 0.018 mPa·s	865.22 ± 3.9 kg/m3	0.741 ± 0.017 mPa·s	861.49 ± 4 kg/m3	0.69 ± 0.016 mPa·s	857.38 ± 4 kg/m3	0.65 ± 0.016 mPa·s	852.44 ± 4.1 kg/m3	0.606 ± 0.015 mPa·s	848.44 ± 4.1 kg/m3	0.56 ± 0.014 mPa·s	845.31 ± 4.2 kg/m3	0.535 ± 0.014 mPa·s	mass density (343.15 K): 840.09 ± 4.3 kg/m3; viscosity (343.15 K): 0.503 ± 0.013 mPa·s
CCOC(=O)C(C)CC (stereo not given) [ethyl 2-methylbutanoate]	869.73 ± 7.4 kg/m3	0.831 ± 0.011 mPa·s	865 ± 7.4 kg/m3	0.774 ± 0.01 mPa·s	861.48 ± 7.5 kg/m3	0.723 ± 0.01 mPa·s	857.88 ± 7.5 kg/m3	0.677 ± 0.01 mPa·s	853.41 ± 7.5 kg/m3	0.635 ± 0.01 mPa·s	849.32 ± 7.5 kg/m3	0.597 ± 0.01 mPa·s	846.74 ± 7.5 kg/m3	0.563 ± 0.009 mPa·s	841.59 ± 7.5 kg/m3	0.532 ± 0.009 mPa·s	838.41 ± 7.5 kg/m3	0.503 ± 0.009 mPa·s	835.48 ± 7.6 kg/m3	0.476 ± 0.009 mPa·s	mass density (343.15 K): 831.46 ± 7.6 kg/m3; viscosity (343.15 K): 0.452 ± 0.009 mPa·s
CCOC(=O)CC(C)C [ethyl 3-methylbutanoate]	866.23 ± 6.5 kg/m3	0.805 ± 0.011 mPa·s	864.01 ± 6.5 kg/m3	0.752 ± 0.011 mPa·s	860.12 ± 6.5 kg/m3	0.703 ± 0.011 mPa·s	855.98 ± 6.5 kg/m3	0.659 ± 0.01 mPa·s	851.79 ± 6.6 kg/m3	0.62 ± 0.01 mPa·s	847.39 ± 6.6 kg/m3	0.581 ± 0.01 mPa·s	846.24 ± 6.6 kg/m3	0.544 ± 0.01 mPa·s	842.35 ± 6.6 kg/m3	0.516 ± 0.009 mPa·s	840.07 ± 6.6 kg/m3	0.485 ± 0.009 mPa·s	836.31 ± 6.7 kg/m3	0.457 ± 0.009 mPa·s	mass density (343.15 K): 833.62 ± 6.7 kg/m3; viscosity (343.15 K): 0.431 ± 0.009 mPa·s
CCOC(C)=O [ethyl acetate]	900.48 ± 2.9 kg/m3	0.443 ± 0.009 mPa·s	894.81 ± 3 kg/m3	0.421 ± 0.009 mPa·s	887.14 ± 3.1 kg/m3	0.399 ± 0.009 mPa·s	882.21 ± 3.2 kg/m3	0.381 ± 0.009 mPa·s	878.92 ± 3.3 kg/m3	0.363 ± 0.009 mPa·s	874.51 ± 3.4 kg/m3	0.346 ± 0.008 mPa·s	870.39 ± 3.4 kg/m3	0.33 ± 0.008 mPa·s	867.13 ± 3.5 kg/m3	0.315 ± 0.008 mPa·s	864.72 ± 3.5 kg/m3	0.301 ± 0.008 mPa·s	861.41 ± 3.6 kg/m3	0.288 ± 0.008 mPa·s	mass density (343.15 K): 858.36 ± 3.6 kg/m3; viscosity (343.15 K): 0.275 ± 0.008 mPa·s
